Assay: Photophysical properties (fluorescence and singlet oxygen quantum yield, lifetime)
Type: physicochemical
Conditions: in ethanol
Method: System Inc, Phoenixville, PA, USA). The excitation beam is separated by a SPEX dual […]
network monochromator (1200 lines / mm blazed at 330 nm). The fluorescence was […]
measured by the UV-Visible detector via the SPEX dual network emission […]
monochromator (1200 lines / mm blazed at 500 nm). Singlet oxygen production was […]
measured with an infrared detector InGaAs (800 - 1550 nm) via the dual network […]
emission monochromator SPEX (600 lines / mm blazed at 1 µm).
All spectra were measured using 4-sided quartz cells. The absorption values of the […]
references and samples at the excitation wavelength were adjusted to 0.2. All emission […]
spectra were normalized to the same absorbance for the purpose of comparison.
[Ru(bpy)3]2+ in acetonitrile was chosen as standard for both fluorescence and singlet […]
oxygen quantum yield determination. Fluorescence quantum yield of [ Ru(bpy)3]2+ i n […]
acetonitrile is evaluated at 0.077.[5] Singlet oxygen quantum yield of [ Ru(bpy)3]2+ i n […]
acetonitrile is evaluat ed at 0.77.[6]
Time-resolved experiments were performed using for excitation: a pulsed laser diode […]
emitting at 407 nm (LDH-P-C-400M, FWHM < 70 ps, 1 MHz) coupled with a driver […]
PDL 800- D (both PicoQuant GmbH, BERLIN, Germany) and for detection: an […]
avalanch e photodiode SPCM-AQR-15 (EG & G, VAUDREUIL, Can ada) coupled with […]
a 650 nm long- wav e p ass filter as det ection system. The acquisition was p erformed by […]
a PicoHarp 300 module with a 4 channels router PHR-800 (both PicoQuant GmbH, […]
BERLIN, Germany ). Th e fluores cence decays were recorded using the single photon […]
counting method. Data were collected up to 1000 counts accumulated in the maximum […]
channel and analyzed using Time Correlated Single Photon Counting (TCSPC) […]
software Fluofit (PicoQuant GmbH, BERLIN, Germany) based on iterative reconvolution using a Levensberg- M arquandt alg oritm, enabling the obtention of multi-exponential profiles (m ainly one or two exponenti als in our cases ). […]

C=Cc1c(C)c2cc3nc(c(CC(=O)O)c4[nH]c(cc5nc(cc1[nH]2)C(C)=C5CC)c(C)c4C(=O)O)[C@@H](CCC(=O)O)[C@@H]3C [Ce6, chlorin e6]
Fluorescence lifetime: 4.7 ns | Fluorescence quantum yield: 0.20 | Singlet oxygen quantum yield: 0.65

— paper PMC13327620, “A Deep‐Red‐Absorbing Osmium(II) Complex as a Photosensitizer for Photodynamic Therapy Inducing Immunogenic Cell Death” (Angewandte Chemie (International Ed. in English), 2026)
